Consider 14 compounds from ChEMBL document CHEMBL1130591, “P2-proline-derived inhibitors of calpain I” (Bioorg Med Chem Lett, 1998).

Non-standard residues stand in square brackets, D forms with d. Residues, ends and D or L forms follow the SMILES beside them. *: point of attachment. Tos = Cc1ccc(S(=O)(=O)*)cc1; Ms = CS(=O)(=O)*

In the first test the target is T1, Calpain-1 catalytic subunit (Homo sapiens, UniProt P07384).
T1 sequence (P07384 whole entry): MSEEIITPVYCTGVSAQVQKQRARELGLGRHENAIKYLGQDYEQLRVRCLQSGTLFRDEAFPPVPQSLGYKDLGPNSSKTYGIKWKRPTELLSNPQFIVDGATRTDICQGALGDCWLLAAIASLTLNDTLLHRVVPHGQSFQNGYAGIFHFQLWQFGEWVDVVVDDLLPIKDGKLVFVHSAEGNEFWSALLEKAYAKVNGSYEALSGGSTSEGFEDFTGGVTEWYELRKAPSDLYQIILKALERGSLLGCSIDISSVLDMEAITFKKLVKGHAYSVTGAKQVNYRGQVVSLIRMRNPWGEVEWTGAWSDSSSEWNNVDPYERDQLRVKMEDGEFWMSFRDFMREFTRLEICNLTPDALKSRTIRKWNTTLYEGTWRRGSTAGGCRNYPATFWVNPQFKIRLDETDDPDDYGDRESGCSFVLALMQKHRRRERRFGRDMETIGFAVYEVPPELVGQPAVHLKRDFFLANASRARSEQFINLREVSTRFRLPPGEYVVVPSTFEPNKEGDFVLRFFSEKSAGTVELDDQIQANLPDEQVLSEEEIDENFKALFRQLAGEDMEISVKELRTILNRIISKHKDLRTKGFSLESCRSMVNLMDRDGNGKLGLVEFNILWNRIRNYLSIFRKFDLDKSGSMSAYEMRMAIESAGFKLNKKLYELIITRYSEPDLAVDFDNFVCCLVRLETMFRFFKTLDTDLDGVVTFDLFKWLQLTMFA
Nature of the test: Compound was tested for inhibitory activity against recombinant human Calpain 1.
Turning to `O=C[C@H](Cc1ccccc1)NC(=O)[C@@H]1CCCN1S(=O)(=O)c1ccccc1`, the IC50 was found to be 0.041 µM.

In the case of `Cc1ccc(S(=O)(=O)N2C[C@H](NC(=O)C(F)(F)F)CC2C(=O)N[C@H](C=O)Cc2ccccc2)cc1` (single isomer, unassigned), the concentration for half-maximal inhibition (IC50) came out at 0.1 µM.

Consider `Cc1ccc(S(=O)(=O)N2C[C@H](C#N)CC2C(=O)N[C@H](C=O)Cc2ccccc2)cc1` (single isomer, unassigned), for which the half-maximal inhibitory concentration (IC50) was 0.028 µM.

In the case of `O=C[C@H](Cc1ccccc1)NC(=O)[C@@H]1C[C@@H](OCc2ccccc2)CN1S(=O)(=O)c1ccccc1`, the half-maximal inhibitory concentration (IC50) amounted to 0.125 µM.

In the case of `CS(=O)(=O)N1CCC[C@H]1C(=O)N[C@H](C=O)Cc1ccccc1` (Ms-Pro-Phe-aldehyde), the 50% inhibitory concentration (IC50) was 0.045 µM.

`O=C[C@H](Cc1ccccc1)NC(=O)[C@@H]1C[C@@H](OS(=O)(=O)c2ccccc2)CN1S(=O)(=O)c1ccccc1`: the IC50 came to 0.013 µM.

For the next test, the target named is Chymotrypsinogen A (Bos taurus) (UniProt P00766). Description: Compound was tested for inhibitory activity against alpha-chymotrypsin at concentration of 1 uM.
In turn, `O=C[C@H](Cc1ccccc1)NC(=O)[C@H]1C[C@H](OS(=O)(=O)c2ccccc2)CN1S(=O)(=O)c1ccccc1` had an inhibition of 42%.

The target is the same in another test. Description: Compound was tested for inhibitory activity against alpha-chymotrypsin at concentration of 10 uM.
In turn, `CS(=O)(=O)N1CCC[C@@H]1C(=O)N[C@H](C=O)Cc1ccccc1` (Ms-[dP]-Phe-aldehyde) returned an inhibition of 2%.

Compound `Cc1ccc(S(=O)(=O)N2CCC[C@@H]2C(=O)N[C@H](C=O)Cc2ccccc2)cc1` (Tos-[dP]-Phe-aldehyde) came in with an inhibition of 12%.

In turn, `Cc1ccc(S(=O)(=O)N2C[C@H](C#N)CC2C(=O)N[C@H](C=O)Cc2ccccc2)cc1` (single isomer, unassigned) had an inhibition of 6%.

In turn, `Cc1ccc(S(=O)(=O)N2C[C@H](N=[N+]=[N-])CC2C(=O)N[C@H](C=O)Cc2ccccc2)cc1` (single isomer, unassigned) returned an inhibition of 9%.

The next test concerns the target Cathepsin B (Homo sapiens, UniProt P07858). Nature of the test: Compound was tested for inhibitory activity against Cathepsin B.
Take `O=C[C@H](Cc1ccccc1)NC(=O)[C@@H]1CCCN1S(=O)(=O)c1ccccc1`: half-maximal inhibition (IC50) required 1.4 µM.

Regarding `CS(=O)(=O)N1CCC[C@@H]1C(=O)N[C@H](C=O)Cc1ccccc1` (Ms-[dP]-Phe-aldehyde), the IC50 worked out at 3 µM.

In the case of `Cc1ccc(S(=O)(=O)N2CCC[C@@H]2C(=O)N[C@H](C=O)Cc2ccccc2)cc1` (Tos-[dP]-Phe-aldehyde), the concentration for half-maximal inhibition (IC50) came out at 3.6 µM.

For the compound `Cc1ccc(S(=O)(=O)N2C[C@H](C#N)CC2C(=O)N[C@H](C=O)Cc2ccccc2)cc1` (single isomer, unassigned), the midpoint of inhibition, the IC50, lay at 8.7 µM.

In the case of `CS(=O)(=O)N1CCC[C@H]1C(=O)N[C@H](C=O)Cc1ccccc1` (Ms-Pro-Phe-aldehyde), half-maximal inhibition (IC50) was put at 0.883 µM.

Consider `Cc1ccc(S(=O)(=O)N2C[C@H](N=[N+]=[N-])CC2C(=O)N[C@H](C=O)Cc2ccccc2)cc1` (single isomer, unassigned), for which the half-maximal inhibitory concentration (IC50) is > 10 µM.

Compound `O=C[C@H](Cc1ccccc1)NC(=O)[C@@H]1C[C@@H](OS(=O)(=O)c2ccccc2)CN1S(=O)(=O)c1ccccc1` came in with an IC50 of 0.038 µM.

The target of a further test is T2, Calpain-1 catalytic subunit (Homo sapiens) (UniProt P07384).
T2 sequence (whole entry): T1 sequence (P07384 whole entry)
Description: Compound was tested for inhibitory activity against recombinant human Calpain 1 at concentration of 1 uM.
For the compound `Cc1ccc(S(=O)(=O)O[C@H]2C[C@H](C(=O)N[C@H](C=O)Cc3ccccc3)N(S(=O)(=O)c3ccc(C)cc3)C2)cc1`, the inhibition is 74%.

As for `Cc1ccc(S(=O)(=O)N2C[C@@H](OS(C)(=O)=O)C[C@@H]2C(=O)N[C@H](C=O)Cc2ccccc2)cc1`, the inhibition turned out to be 79%.

`Cc1ccc(S(=O)(=O)N2C[C@H](NS(C)(=O)=O)CC2C(=O)N[C@H](C=O)Cc2ccccc2)cc1` (single isomer, unassigned): the inhibition came to 40%.

With `Cc1ccc(S(=O)(=O)O[C@@H]2C[C@H](C(=O)N[C@H](C=O)Cc3ccccc3)N(S(=O)(=O)c3ccccc3)C2)cc1`, the inhibition was 48%.
